# Test results as given in patent US10632172B2, “Injectable self-assembling antibacterial peptide hydrogels” (New Jersey Institute of Technology, priority 2018, dated 2020).
# Values joined by “and” are separate entries in the source; they are usually repeats but may differ in a detail not shown here. Identical values can stand only once. “Also recorded” adds a separate entry of the source.
# Columns and labels:
# [1] = In vivo subcutaneous implantation of hydrogel, histology; parameters: species or system Wistar rats
# Protocol: To test the in vivo persistence of the peptide, Wistar rats were subcutaneously injected with 200 μL CASP-K6 hydrogel (2% w/v). Because of the thixotropic nature of the hydrogel, it reconstituted post-injection in the subcutaneous pocket. At prescribed time intervals (1, 3, and 7 days), the rats were sacrificed and the dorsal skin covering the implant was removed for histological examination. Used was hematoxylin and eosin (H&E) FIGS. 15A-15B, and Masson's trichrome staining FIGS. 15C-15D) to analyze the tissue sections.
# For in vivo subcutaneous implantations, NJIT-Rutgers animal care facility was used. Injected was ˜200 μL CASP-K6 hydrogels in the subcutaneous pocket (dorsal aspect) of female Wistar rats (˜250 g, Charles River) (four implants (n=4) per rat). At the specified time points (1 day, 3 day, and 7 day), the animals were sacrificed and regions around the implant were excised, fixed, and processed. Hematoxylin and eosin (H&E) and Masson's trichrome staining was used for histologic analysis.
# [2] = Rheology of CASP hydrogels/solutions (strain sweep, shear recovery); assay type: physicochemical; settings: for storage modulus (G') at 1% strain: 2% w/v hydrogels/solutions
# Protocol: For rheology, 2% peptide hydrogel was transferred between a plate and a 4 mm parallel plate geometry with a gap of 350 μm, on a Malvern Kinexus Ultra+rheometer. Strain sweep (0.1-100% strain at 1 Hz) and shear recovery (1% strain at 1 Hz for 5 min, 100% strain at 1 Hz for 1 min, and 1% strain at 1 Hz for 5 min) were carried out.
# NIH 3T3 fibroblasts = assay: In vitro cytocompatibility (LIVE/DEAD viability/cytotoxicity kit); assay type: cell-based; settings: 0.002% peptide in media, day 3
# Protocol: For in vitro cytocompatibility tests, cultured were NIH 3T3 fibroblasts in DMEM supplemented with 10% FBS and 1× penicillin-streptomycin in T75 flasks. After the fibroblasts reached confluency, they were seeded in a 96-well plate at 2,500 cells/well. 0.002% CASP-K6 (n=6) and a control (media with sucrose and phosphate-buffered saline (PBS), n=6) were tested. For the former, the peptide was supplemented in the media, and for the control, 298 mM sucrose and PBS was supplemented to the media. The sucrose and PBS supplemented in the media control corresponded to the quantities required to formulate CASP-K6. Media was changed daily for 3 days and cytocompatibility was assessed on day 3 using a LIVE/DEAD viability/cytotoxicity kit (images were taken on a Nikon Eclipse Ti—S inverted fluorescent microscope). A NIH ImageJ was used to quantify cell viability.
# [3] = system: Pseudomonas aeruginosa PAO1; assay: Colony disruption on agar plates (inhibition zones, SEM); assay type: cell-based; settings: P. aeruginosa PAO1 on agar, peptide hydrogels/solutions applied, overnight
# Protocol: Colonies of the gram-negative bacteria Pseudomonas aeruginosa PAO1 were grown on agar and CASP solutions were applied to assess their colony-disruption ability (FIGS. 9A-9E). Cationic amphiphilic peptide nanofibers show noticeable bactericidal effect. This effect was correlated with the terminal charge on the cationic nanofibers (FIGS. 9C-9D), consistent with the hypothesis that a greater terminal charge facilitates the association of the peptide nanofibrils with the bacterial cell membrane.
# To test the efficacy of CASPs against bacterial colonies, Pseudomonas aeruginosa (PAO1) were cultured on agar plates and peptide hydrogels/solutions were placed on these bacteria cultures during the exponential growth phase to evaluate the antibacterial properties. The experiment to test antibacterial activity of the peptides was carried out over 4 days. On day 1, an agar plate was streaked with the bacteria using an inoculating loop. The streaked plate was then kept in an incubator to allow for bacterial growth overnight. Day 2 consisted of inoculating one colony of bacteria from the streaked plate into a glass tube filled with 5 mL of the Luria-Bertani (LB) broth. The tube is then set aside to allow for the colony to grow overnight in the LB broth. The following day the agar plates were labeled with the type of bacteria, concentration used, treatment being tested, and the date. […]
# [4] = Hydrogel formation after addition of 10xPBS to 2% (w/v) peptide solution in 298 mM sucrose; assay type: physicochemical; settings: 2% (w/v) in 298 mM sucrose, 10xPBS pH 7 added 1:9
# Protocol: In one example, after purification and lyophilization, the peptides are dissolved in 298 mM sucrose solution to prepare 2% (w/v) solutions. After the addition of 10×PBS (pH 7) to the peptide solution (in a 1:9 volumetric ratio), hydrogels form within seconds. Biofilms of the gram-negative bacteria Pseudomonas putida are grown on agar plates and CASP solutions are applied on top of established biofilms to test their ability to disrupt the bacterial colony. Cationic amphiphilic peptide nanofibers show noticeable bactericidal effect on biofilms. This effect is correlated with the terminal charge on the cationic nanofibers, consistent with initial hypothesis contained herein that higher terminal charge facilitates the association of the peptide nanofibrils with the bacterial cell membrane. The effect of the antibacterial hydrogel is localized on the biofilm.
# In this example, a series of CASPs was explored. The series of CASPs were synthesized through solid-phase peptide synthesis and verified by mass spectrometry as shown in FIGS. 3A-3D. After purification and lyophilisation, the peptides were dissolved in 298 mM sucrose solution to prepare 2% (w/v) solutions. After the addition of 10×PBS (pH 7) to the peptide solution (in a 1:9 volumetric ratio), CASP-K2 through CASP-K6 formed hydrogels within seconds.
# [5] = cited from earlier work
substance,measurement,setting,value
Ac-KKKKKKSLSLSLSLSLSLKKKKKK-NH2 [CASP-K6],in vivo persistence,"[1]; rat, in vivo, sc",persists in vivo
same,in vivo persistence of subcutaneous implant (remained observable),"[1]; rat, in vivo, sc",at least 7 days
same,local/systemic toxicity or mortality,"[1]; subcutaneous implants in rats, up to 7 days",did not induce any local/systemic toxicity or mortality
same,storage modulus (G') at 1% strain,[2],~210 Pa
same,storage modulus of hydrogel (rheometry),[2]; strain not stated,> 100 Pa and > 200 Pa
same,shear strain at which the gel liquefied (G'<G''),[2]; strain sweep,> 30 % strain
same,toxicity with respect to mammalian cells (cytocompatibility),NIH 3T3 fibroblasts,low toxicity
same,disruption of bacterial colonies / antibacterial activity,[3],very effective in disrupting the bacterial layer; also recorded: comparable antibacterial activity
KKKKKKKKSLSLSLSLSLSLKKKKKKKK (CASP-K8) [cationic amphiphilic self-assembling peptide],hydrogel formation,[4],failed to form a gel; also recorded: remained in solution
same,storage modulus (G') at 1% strain,[2],~30 Pa
same,disruption of bacterial colonies / antibacterial activity,[3],very effective in disrupting the bacterial layer
KKKKSLSLSLSLSLSLKKKK (CASP-K4) [cationic amphiphilic self-assembling peptide],storage modulus (G') at 1% strain,[2],~430 Pa
"KKSLSLSLSLSLSLKK (CASP-K2) [cationic amphiphilic self-assembling peptide, previously reported as a multifunctional scaffold]",storage modulus (G') at 1% strain,[2],~620 Pa
LL-37: natural antimicrobial peptide,enzymatic degradation in vivo,[5],susceptible to enzymatic degradation in vivo within a time period of hours
